The target in one assay is T1, HCV NS4B (Hepatitis C virus genotype 1b, UniProt Q9WMX2).
T1 construct: NS4B was cloned, expressed and purified to establish an assay; made in house
Put plainly: NS4B binding assay (quenching of intrinsic protein fluorescence). The text has this:
NS4B was cloned, expressed and purified to establish an assay, which takes advantage of the intrinsic fluorescent properties of proteins and identifies compounds, which inhibit by a NS4B specific mechanism. This protein is necessary for viral replication. It is thought to act as an anchor securing the replication complex to cellular membranes, where replication is known to occur. Several other functions necessary for viral replication have also ascribed to NS4B.

Assay [1] relates to HCV replicon (BB7 sequence) in Huh-7-Clone A cells. Put plainly: HCV replicon NS5A ELISA, inhibition of viral RNA replication. Type of assay: cell-based, hepatitis C virus. Particulars: Hepatitis C virus, read-out: ELISA EC50. The procedure: Antiviral activity of representative compounds of the invention was evaluated in a human liver-derived cell line (Huh-7-Clone A) containing the HCV replicon (BB7 sequence) (See Lohmann et al. Science. 1999, 285:110-3; Blight K J et al., Science. 2000, 290:1972-4; Pietschmann, T. et al., J. Virol. 2001, 73:1252-1264; and Lohmann, V. et al., J. Virol. 2001, 75:1437-1449). The HCV replicon is a subgenomic viral RNA that expresses the HCV proteins required for its own replication. These proteins include non-structural proteins NS3, NS4A, NS4B, NS5A and NS5B. The replicon also contains a foreign gene encoding a drug-selectable marker (neomycin phosphotransferase) to allow for G418 (neomycin) selection of cells that contain the replicon.
An ELISA (enzyme-linked immunosorbant assay) was used to determine the effect of compounds within the scope of the invention on the amount of HCV NS5A protein produced after a 72-hour incubation of the replicon-containing cells in the presence of varying concentrations of compound. Huh7-Clone A cells were seeded in 96-well plates at a subconfluent density (9000 cells/well) in medium containing 2% FBS and incubated for 4 hours to allow attachment to occur. HCV-086 (solubilized with 100% dimethylsulfoxide [DMSO]) was added to wells using an 8-point, 3-fold serial dilution series, with a final DMSO concentration of 1% in a total volume of 200 μL. Plates were incubated for 72 hours at 37° C. and 5% CO2. Under these conditions, the cells are approximately 25% confluent at the time of seeding and 80-90% confluent on day 3. COSTAR® 96-well cell culture plates were used but other known cell culture plates may be used. After incubation, media is removed from wells and the cells are fixed to the assay plate using 0.05% glutaraldehyde (Fisher # 02957-4). The glutaraldehyde is then washed off using phosphate-buffered saline (PBS) following a 1 hour incubation and cells are blocked for non-specific antibody binding using for example SUPERBLOCK® reagent (blocking buffer) in PBS. The blocking agent is rinsed from the cells with PBS after 1 hour at 37° C., and HCV NS5A monoclonal antibody (Virostat # 1873) is added to each well containing compound. Primary antibody is incubated for 1 hour at 37° C. and rinsed 3 times with PBS containing 0.02% TWEEN-20™ before addition of Horseradish Peroxidase (HRP) conjugated secondary antibody. HRP is incubated for 1 hour at 37° C. and rinsed several times, first with PBS/TWEEN-20™ followed by PBS alone. To quantify peroxidase activity, 3,3′,5,5′-tetramethylbenzidine (TMB) substrate is added to the plate and after 30 minutes, the plates are read in an ELISA plate reader at an OD of 650 nm.
Compound dose response was measured in an 8-point dose curve diluted serially to determine the inhibitory concentration at 50% (EC50 value). […] Ranges of 50% effective concentrations (EC50s) for the representative compounds within the scope of this invention are listed in Tables 1-8. Preferred compounds have 50% effective concentrations at about 30 μM or less, more preferred compounds have 50% effective concentrations at about 5 μM or less, and most preferred compounds have 50% effective concentrations at about 0.5 μM or less.

The mark [2] stands for this setting: Table 1, phenyl benzamide compounds, read-out: Kd.
[3] abbreviates: Table 1, NS5A protein, 72-hour incubation.
Setting [4] is: Table 2, pyrazolopyrimidine compounds, read-out: Kd.
Setting [5] is: Table 2, NS5A protein, 72-hour incubation.
The mark [6] stands for this setting: Table 5, aminothiophene compounds, read-out: Kd.
[7] abbreviates: Table 5, NS5A protein, 72-hour incubation.
Where [8] appears, read: Table 6, phenylthiazolylamine compounds, read-out: Kd.
Where [9] appears, read: Table 6, NS5A protein, 72-hour incubation.
Where [10] appears, read: Table 7, triazinoindole compounds, read-out: Kd.
Where [11] appears, read: Table 7, NS5A protein, 72-hour incubation.

Molecules are shown by their SMILES. pEC50, pKd: −log10 of the molar value. Like-named read-outs stand apart in the source and are kept apart here.

T1 sequence (Q9WMX2 1712-1972): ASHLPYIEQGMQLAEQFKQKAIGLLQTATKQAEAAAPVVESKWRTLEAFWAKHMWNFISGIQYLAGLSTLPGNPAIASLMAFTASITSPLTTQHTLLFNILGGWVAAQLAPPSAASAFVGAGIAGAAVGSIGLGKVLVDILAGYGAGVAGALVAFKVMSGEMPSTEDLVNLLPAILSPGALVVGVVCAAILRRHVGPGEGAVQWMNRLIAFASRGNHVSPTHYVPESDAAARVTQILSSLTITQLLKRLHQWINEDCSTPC

As usually defined, the pKd is the Kd on a negative log10 scale, so that one unit is a factor of ten. In general, pEC50 refers to −log10 of the EC50, conventionally taken in molar units. For the compound `CC(=O)c1ccc(NC(=O)c2cc3c(C)nn(-c4ccccc4)c3s2)cc1` [Example 1], the pKd at HCV NS4B (Table 4, thienopyrazole compound, read-out: Kd) was 6.00. In assay [1] (Table 4, NS5A protein, 72-hour incubation), the pEC50 is 5.50.
As to `CCC(C)c1ccc(NC(=O)c2ccccc2F)cc1` (centres unmarked) [Example 1], the negative logarithm of the Kd (pKd) on HCV NS4B (setting [2]) is 5.60. For the same compound, in assay [1] (setting [3]), the pEC50 was 5.57.
Take `CCCc1cc(O)n2nc(-c3ccc(C)cc3)c(C)c2n1` [Example 1]: the pKd on HCV NS4B (setting [4]) was 5.23. In assay [1] (setting [5]), the negative logarithm of the EC50 (pEC50) was 5.66.
Take `COC(=O)c1c(NC(=O)Cc2cccs2)sc(C(=O)Nc2ccc(Cl)cc2)c1C` [Example 1]: the pKd at HCV NS4B (setting [6]) is 6.52. The negative logarithm of the EC50 (pEC50) in assay [1] (setting [7]) was 6.15.
In the case of `COc1ccc(Cl)cc1Nc1nc(-c2cccnc2)cs1` [Example 1], the pKd at HCV NS4B (setting [8]) is 5.77. Also, in assay [1] (setting [9]), the pEC50 was 5.82.
Regarding `Cc1nccn1-c1nc(-c2ccc(Cl)cc2)cc(C(F)(F)F)n1` [Example 1], the pKd on HCV NS4B (Table 3, trifluoromethylpyrimidine compound, read-out: Kd) is 5.69. Also, in assay [1] (Table 3, NS5A protein, 72-hour incubation), the pEC50 is 5.66.
Regarding `CC(=O)Nc1ccc(Nc2nc(-c3cccs3)cs2)cc1` [Example 2], the pKd at HCV NS4B (setting [8]) is 5.21. In addition, the pEC50 in assay [1] (setting [9]) is 4.95.
As for `CCn1c2ccccc2c2nnc(-n3nc(C)c(-c4ccccc4)c3C)nc21` [Example 2], at HCV NS4B (setting [10]), the pKd is 5.66. In addition, the negative-log EC50 (pEC50) in assay [1] (setting [11]) is 6.00.
For the compound `COC(=O)c1c(NC(=O)c2ccc3c(c2)OCO3)sc(C(=O)NC2CCCCC2)c1C` [Example 2], the pKd at HCV NS4B (setting [6]) was 5.40. Also, in assay [1] (setting [7]), the pEC50 was 5.12.
Turning to `COc1ccc(C(=O)Nc2ccc(N3CCOCC3)c(Cl)c2)cc1Cl` [Example 2], the negative-log Kd (pKd) on HCV NS4B (setting [2]) was 5.63. In assay [1] (setting [3]), the pEC50 is 5.60.
In the case of `O=C(NC1CCCC1)c1cc2nc(-c3ccccc3)cc(C(F)(F)F)n2n1` [Example 2], on HCV NS4B (setting [4]), the pKd was 5.38. For the same compound, in assay [1] (setting [5]), the negative logarithm of the EC50 (pEC50) is 5.77.
On to `CC(C)Oc1cccc(C(=O)Nc2ccc(N3CCOCC3)c(Cl)c2)c1` [Example 3], for which, at HCV NS4B, the pKd was 5.35. For the same compound, the negative-log EC50 (pEC50) in assay [1] (setting [3]) is 5.41.
As to `CCCCc1c(C)nn(-c2nnc3c4ccccc4n(C)c3n2)c1C` [Example 3], the pKd on HCV NS4B was 5.37. In addition, in assay [1] (setting [11]), the pEC50 was 5.24.
`COC(=O)c1c(NC(=O)C(C)C)sc(C(=O)Nc2ccc(Cl)cc2)c1C` [Example 3] gave a pKd on HCV NS4B of 6.07. The pEC50 in assay [1] (setting [7]) is 5.94.
For the compound `COc1ccc(OC)c(Nc2nc(-c3cccs3)cs2)c1` [Example 3], the pKd on HCV NS4B (setting [8]) was 6.24. The pEC50 in assay [1] (72 h) was 5.60.
For `O=C(NCc1cccs1)c1cc2nc(-c3ccco3)cc(C(F)(F)Cl)n2n1` [Example 3], the pKd at HCV NS4B is 6.18. Also, in assay [1] (setting [5]), the pEC50 is 6.20.
As for `CC(C)c1ccc(NC(=O)c2ccccc2)cc1` [Example 4], on HCV NS4B (setting [2]), the pKd is 5.16. The pEC50 in assay [1] (setting [3]) is 5.55.
With `CCC(=O)Nc1sc(C(=O)Nc2ccc(C)cc2)c(C)c1C(=O)OC` [Example 4], the pKd at HCV NS4B (setting [6]) was 5.78. Also, the pEC50 in assay [1] (setting [7]) was 5.49.
In the case of `Cc1nn(-c2nnc3c4ccccc4n(C)c3n2)c(C)c1C` [Example 4], the negative-log Kd (pKd) at HCV NS4B (setting [10]) is 4.85. Moreover, in assay [1] (setting [11]), the pEC50 was below 4.60.
As for `CCC(=O)Nc1sc(C(=O)Nc2ccc(Cl)cc2)c(C)c1C(=O)OC` [Example 5], the pKd on HCV NS4B (setting [6]) was 5.60. The pEC50 in assay [1] (setting [7]) is 5.34.
Take `CCn1c2ccccc2c2nnc(-n3nc(C)c(C)c3C)nc21` [Example 5]: the negative-log Kd (pKd) on HCV NS4B (setting [10]) is 4.81. Moreover, in assay [1] (setting [11]), the pEC50 is below 4.60.
On to `CCc1c(C)nn(-c2nnc3c4ccccc4n(C)c3n2)c1C` [Example 6], for which the pKd at HCV NS4B (setting [10]) is 5.12. Besides, the pEC50 in assay [1] (setting [11]) is below 4.60.
As for `CCCCc1c(C)nn(-c2nnc3c4ccccc4n(CCO)c3n2)c1C` [Example 7], the pKd at HCV NS4B (setting [10]) was 5.70. Besides, in assay [1] (setting [11]), the pEC50 is below 4.60.
On the same counts, the results for `CCCCc1c(C)nn(-c2nnc3c4ccccc4n(CCN(C(C)C)C(C)C)c3n2)c1C` [Example 8] are 4.99 and 5.18.
Taken in the same sequence, the figures for `CCCCc1c(C)nn(-c2nnc3c4ccccc4n(CCN(CC)CC)c3n2)c1C` [Example 9] were 5.74 and 5.28.
As to `CCCCc1c(C)nn(-c2nnc3c(n2)[nH]c2ccccc23)c1C` [Example 10], at HCV NS4B (setting [10]), the negative-log Kd (pKd) was 5.44. For the same compound, the pEC50 in assay [1] (setting [11]) was below 4.60.
Take `CCCCc1c(C)nn(-c2nnc3c4ccccc4n(CCOC)c3n2)c1C` [Example 11]: the pKd at HCV NS4B (setting [10]) is 6.00. Moreover, the pEC50 in assay [1] (setting [11]) was 5.15.
For the compound `CCCCc1c(C)nn(-c2nnc3c4ccccc4n(CCSC)c3n2)c1C` [Example 12], the pKd on HCV NS4B (setting [10]) was 5.74. For the same compound, the pEC50 in assay [1] (setting [11]) is 5.00.

For the origin of these results see patent US20070269420A1, “Compounds, Compositions and Methods for Treatment and Prophylaxis of Hepatitis C Viral Infections and Associated Diseases” (priority 2003, published 2007).
